Assay results taken from BindingDB's records for doi:10.1016/j.bmcl.2005.02.006 (Wyeth Research, 2005).

What was measured:
[1] = In vitro effective concentration against beta amyloid protein 40 in ELISA
[2] = In vitro effective concentration against beta amyloid protein 42 in ELISA
[3] = In vitro inhibition of amyloid precursor protein 695 activity in CHO cells expressing human APP

SMILES | EC50 [1] | EC50 [2] | EC50 [3]
CCOC(=O)N1CCC(c2ccccc2C)(S(=O)(=O)c2ccc(OC)cc2)CC1 [4-(4-Methoxy-benzenesulfonyl)-4-o-tolyl-piperidine-1-carboxylic acid ethyl ester] | 24.5 µM | – | –
CCOC(=O)N1CCC(c2ccccc2)(S(=O)(=O)c2ccc(OC)cc2)CC1 [4-(4-Methoxy-benzenesulfonyl)-4-phenyl-piperidine-1-carboxylic acid ethyl ester] | 97 µM | – | –
CCOC(=O)N1CCC(c2ccccc2C)(S(=O)(=O)c2ccccc2)CC1 [4-Benzenesulfonyl-4-o-tolyl-piperidine-1-carboxylic acid ethyl ester] | 48.6 µM | – | –
CCCNC(=O)OC[C@@H](C)N(c1cc(Cl)ccc1CO)S(=O)(=O)c1ccc(Cl)cc1 [BMCL18464 Compound 14] | 0.1 µM | – | –
CCOC(=O)N1CCC(c2ccccc2OC)(S(=O)(=O)c2ccc(Cl)cc2)CC1 [ethyl 4-(4-chlorophenylsulfonyl)-4-(2-methoxyphenyl)piperidine-1-carboxylate] | 3.5 µM | 5 µM | 1.03 µM
CCOC(=O)N1CCC(c2ccccc2)(S(=O)(=O)c2ccc(Cl)cc2)CC1 [ethyl 4-[(4-chlorobenzene)sulfonyl]-4-phenylpiperidine-1-carboxylate] | 12.2 µM | 20.9 µM | –
CCOC(=O)N1CCC(c2ccccc2OC)(S(=O)(=O)c2ccccc2)CC1 [4-Benzenesulfonyl-4-(2-methoxy-phenyl)-piperidine-1-carboxylic acid ethyl ester] | 62.7 µM | – | –
CCOC(=O)N1CCC(c2ccccc2OC)(S(=O)(=O)c2ccc(OC)cc2)CC1 [4-(4-Methoxy-benzenesulfonyl)-4-(2-methoxy-phenyl)-piperidine-1-carboxylic acid ethyl ester] | 50.6 µM | – | –
CCOC(=O)N1CCC(c2ccccc2C)(S(=O)(=O)c2ccc(Cl)cc2)CC1 [4-(4-Chloro-benzenesulfonyl)-4-o-tolyl-piperidine-1-carboxylic acid ethyl ester] | 2.7 µM | 3.7 µM | –
